In US5204323A, “Heparin and hirudin antidotal compositions and methods” (Ciba-Geigy Corporation, priority 1988, dated 1993):

Legend:
[1] = system: Factor VIII levels in human plasma; assay: DDAVP infusion into human volunteers, Factor VIII levels in plasma; type: in vivo; conditions: DDAVP 0.3 mg/kg in sterile saline infused over 15 minutes, compared to volume matched saline controls, FIG. 7
Description: (§1) 1-Deamino-8-D-arginine vasopressin (DDAVP) ([…] in sterile saline) is infused into human volunteers over a 15 minute period between times 0-15 minutes. Subsequently blood samples are taken and FVIII levels measured (Langdell et al. (1953) J. Lab. Chim. Med. 41, 637) and the correspond. ing effect on hirudin induced elevation of APTT in vitro asessed. The results are shown in FIG. 7 which represent a typical example of ten volunteer studies. […] Results are compared to volume matched saline controls.

[2] = system: hirudin induced elevation of APTT in human plasma; assay: Hirudin induced elevation of APTT in vitro in blood samples taken after DDAVP infusion; type: in vivo; conditions: blood samples of human volunteers after DDAVP infusion (0.3 mg/kg, 15 minutes); desulphatohirudin HV1 added in vitro; FIG. 7
Description: The anticoagulant effects of hirudin are measured in vitro on human plasma to which various concentrations of hirudin (in saline) have been added, one minute prior to APTT determination (Activated partial thromboplastin time; means for measuring blood clotting according to Basu et al. (1972) N. Engl. J. Med. 287, 324). Different concentrations of FVIII (reconstituted in water in accordance with the manufacturers specification) are added and the results are shown in FIG. 3 of the accompanying drawings. The anticoagulant effects of hirudin are measured by APTT.
as §1

## NC(=O)CC[C@@H]1NC(=O)[C@H](Cc2ccccc2)NC(=O)[C@H](Cc2ccc(O)cc2)NC(=O)CCSSC[C@@H](C(=O)N2CCC[C@H]2C(=O)N[C@H](CCCN=C(N)N)C(=O)NCC(N)=O)NC(=O)[C@H](CC(N)=O)NC1=O [DDAVP, 1-deamino-8-D-arginine vasopressin]
[1]
  FVIII levels: raised FVIII levels
[2]
  effect on hirudin induced elevation of APTT in vitro: reduces the degree of anticoagulation induced by hirudin
